Results reported in patent publication EP0528661A2, “HIV protease inhibitors with N-terminal polyether substituents” (MERCK & CO. INC., priority 1991, dated 1993).
pIC50: −log10 of the molar value.

Target: T1, HIV protease (Human immunodeficiency virus type 1 group M subtype B, UniProt P12497)
T1 construct: the protease expressed in Eschericia coli; made in house; host or cells: Escherichia coli
Assay: Assay for inhibition of microbial expressed viral protease (peptide substrate cleavage, HPLC quantitation)
Format: biochemical
Conditions: protease expressed in Eschericia coli; peptide substrate Val-Ser-Gln-Asn-(betanapthyl)Ala-Pro-Ile-Val 0.5 mg/mL; 50 mM Na acetate, pH 5.5, 30°C, 1 hour; read-out: IC₅₀
Method: Assay for Inhibition of Microbial Expressed Viral Protease
Inhibition studies of the reaction of the protease expressed in Eschericia coli with a peptide substrate [Val-Ser-Gln-Asn-(betanapthyl)Ala-Pro-Ile-Val, 0.5 mg/mL at the time the reaction is initiated] were in 50 mM Na acetate, pH 5.5, at 30°C for 1 hour. Various concentrations of inhibitor in 1.0 ul DMAO were added to 25 ul of the peptide solution in water. The reaction is initiated by the addition of 15 ul of 0.33 nM protease (0.11 ng) in a solution of 0.133 M Na acetate pH 5.5 and 0.26% bovine serum albumin. The reaction was quenched with 160 ul of 5% phosphoric acid. Products of the reaction were separated by HPLC (VYDAC wide pore 5 cm C-18 reverse phase, acetonitrile gradient, 0.1% phosphoric acid). The extent of inhibition of the reaction was determined from the peak heights of the products.

COCCOCCOCCOCCOC(=O)N[C@@H](Cc1ccccc1)[C@@H](O)C[C@@H](Cc1ccccc1)C(=O)N[C@H]1c2ccccc2C[C@H]1O [Compound A, N-(2(R)-hydroxy-1(S)-indanyl)-5(S)-(3,6,9,12-tetraoxatridecyloxycarbonylamino)-4(S)-hydroxy-2(R)-phenylmethyl-6-phenylhexanamide]
pIC50: ~8.30
